# Experimental data from patent publication US20180093308A1, “METHANOGENESIS CONTROL DURING ENVIRONMENTAL APPLICATIONS USING ANTIMETHANOGENIC REAGENTS” (Innovative Environmental Technologies, Inc, priority 2016, published 2018).
# Tested on: Archaea
# Experiment: Laboratory Study 4: methane concentration in control and test samples with AMRs
# Assay type: cell-based
# Method: Use of diallyl sulfide, which may be considered a synthetic garlic oil (GOS), was evaluated for its ability to control Archaea compared to the effects of other potential AMRs such as natural/pressed Garlic Oil (GO) and dehydrated Garlic Powder (GP). Control samples with and without contaminants were captured along with test samples that included contaminants and different concentrations (250 ppm and 500 ppm) of different AMRs (GO, GOS and GP). The concentration of methane in each of the samples was measured at 0, 9, 16 and 23 days.
compound,measurement,setting,value
"C=CCSCC=C [GOS, diallyl sulfide]",control response in terms of methane production,"250 ppm and 500 ppm, 23 days incubation",best control response
same,length and magnitude of antimethanogenic responses,500 ppm lasting longer than 250 ppm,concentration dependent
